Results on four compounds are retold here after patent publication EP2272342B1, “Herbicidal compositions” (BASF SE, priority 1993, dated 1994).

The test system of one test is large crabgrass. The experiment in a line: Field trial in corn, tankmix at early post-emergence: weed control (Example 2). The class given is in vivo. How it is done:
A field trial is carried out employing FRONTIER® 7.5 EC and ACCENT® 75 WDG in control of large crabgrass in corn. Application is as tankmix combination at early post-emergence of the weeds (3 and 4 leaf stages). Application rates of a.i. are 1.5 and 0.75 kg/ha for dimethenamid and 37.2 and 19.2 g/ha for nicosulfuron. Combined application of 0.75 kg/ha of dimethenamid and 19.2 g/ha of nicosulfuron gave 85% control with negligible corn damage compared with 35% of nicosulfuron applied alone at 19.2 g/ha and 72% for dimethenamid at a higher rate of […]. Combined application at the higher rate of dimethenamid with 37.2 g/ha of nicosulfuron gave an even more dramatic effect with 95% control compared with 72% for dimethenamid and only 45% for nicosulfuron each alone.

The next test relates to cyperus rotundus. The experiment in a line: Field trial in sugar cane plots, tank mix by backpack sprayer: weed control (Example 5). It counts as in vivo. How it is done:
A field trial is carried out on plots (2 x 20 m) planted with sugar cane and infested with cyperus rotundus in the first or second growing stage and sprayed with a backpack sprayer in different concentrations in a tank mix. The amount of liquid spray broth is 400 I/ha.
The application rates are 2.7 kg/ha of dimethenamid with 60 g/ha of chlorimuron or with 1.6 kg/ha of a fixed ratio mixture of chlorimuron and diuron (1 : 19) which is commercially available as FRONT®. Visual evaluation is done 30 or 60 days after treatment (DAT) in percentage of control. The expected additive effect value is calculated according to the method of Colby: […]

The test system of the next test is echinochloa crus galli. The experiment in a line: Small field units in a maize field, 3-way tank-mix spray: weed control (Example 4). The class given is in vivo. The note with it: 1500 a.i./ha; 14 days after treatment. The source says:
Small field units in a maize field, infested with echinochloa crus galli, solanum nigrum and chenopodium album are sprayed with a tank-mix suspension of dimethenamid, sulcotrione and atrazine. The stage of the weeds is "full tillering" of echinochloa and "6-8 leaves stage" for solanum and chenopodium. The lot size is 8 meters in length and 3 meters in broadth. The application rates are 1.08 kg/ha of dimethenamid, 150 or 210 g/ha of sulcotrione and 750 g/ha of atrazine. 14 days after treatment the efficacy is evaluated.

The test system of the next test is Solanum/Chenopodium. The test is described as above. The class given is in vivo, solanum nigrum and chenopodium album. The note with it: 1500 a.i./ha; 14 days after treatment. How it is done: Small field units in a maize field, infested with echinochloa crus galli, solanum nigrum and chenopodium album are sprayed with a tank-mix suspension of dimethenamid, sulcotrione and atrazine. The stage of the weeds is "full tillering" of echinochloa and "6-8 leaves stage" for solanum and chenopodium. The lot size is 8 meters in length and 3 meters in broadth. […] 14 days after treatment the efficacy is evaluated.

As for `COc1cc(OC)nc(NC(=O)NS(=O)(=O)c2ncccc2C(=O)N(C)C)n1` [nicosulfuron], the control in the test with large crabgrass (nicosulfuron alone, 37.2 g/ha) was found to be 45%; in the test with large crabgrass (nicosulfuron applied alone at 19.2 g/ha) it was 35%.
For the compound `COCC(C)N(C(=O)CCl)c1c(C)csc1C` (centres unmarked) [Dimethenamid, 2-chloro-N-(2,4-dimethyl-3-thienyl)-N-(2-methoxy-1-methylethyl)-acetamide], the control with large crabgrass (dimethenamid alone at a higher rate of 1.25 g/ha (so in the source)) is reported as 72%; with large crabgrass (dimethenamid alone, higher rate (second comparison)), 72%. In addition, the “Cyperus Control (DAT)” value with cyperus rotundus (2.25 kg a.i./ha, light to medium soil, 30 DAT) was 23 (30 DAT) %; with cyperus rotundus (2.7 kg a.i./ha, heavy soil, 60 DAT), 10 (60 DAT) %; in the test with cyperus rotundus (2.7 kg a.i./ha, light to medium soil, 30 DAT), 27 (30 DAT) %; in the test on cyperus rotundus (2.7 kg a.i./ha, light to medium soil, 60 DAT) it was 19 (60 DAT) %.
As to chlorimuron, the “Cyperus Control (DAT)” value in the test on cyperus rotundus (0.06 kg a.i./ha, light to medium soil, 30 DAT) is 58 (30 DAT) %.
In the test on echinochloa crus galli, `CCNc1nc(Cl)nc(NC(C)C)n1` [Atrazine, atrazine] returned an Echinochloa control of 23%. For the same compound, the Solanum/Chenopodium control in the test on Solanum/Chenopodium amounted to 16%.
